We go through 18 compounds from patent US20210198204A1, “PRODRUGS OF KALLIKREIN INHIBITORS” (BioCryst Pharmaceuticals, Inc., priority 2016, published 2021).

The nature of the data set: Plasma pharmacokinetics of the parent compound after a single oral dose of prodrug. The data set is classed as in vivo. The settings on record: single oral dose 10 mg/kg, fasted male Sprague Dawley rats; plasma analyzed for the parent compound; study duration 8 h. The method, then:
Plasma pharmacokinetics of compounds was determined using three male Sprague Dawley rats following a single oral dose administration. All animals were placed in a rat metabolic cage, isolated, and fasted approximately 15 hours prior to dosing. Identifying markers were placed on each animal. Each animal was weighed prior to dose administration. Animals were administered orally with a solution formulation of test compound either in water or a combination of water/propylene glycol, at a dose of 10 mg/kg. Gavage needles were attached to syringes and filled with appropriate amount of test article to be dosed. Blood samples (approximately 500 μL) were collected from three rats at pre-dose (time 0), 0.5, 1, 2, 4, 8, 12 and 24 hr, respectively, depending on study duration. Samples were collected into labeled micro centrifuge tubes containing (heparin solution) as an anticoagulant. Plasma was immediately harvested from the blood by centrifugation at 14,000 rpm for 3 min at 4° C., and stored below −70° C. until bioanalysis. Individual plasma samples were analyzed for the parent compound, 3-[2-(4-carbamimidoyl-phenylcarbamoyl)-5-methoxy-4-vinyl-phenyl]-6-(cyclopropylmethyl-carbamoyl)-pyridine-2-carboxylic acid. As shown in Table-1, the test compounds yielded varying degrees of exposure to the parent compound. The test compounds generally provided for improved bioavailability of the parent compound as compared to dosing of the parent compound in aqueous solutions.
With `C=Cc1cc(C(=O)Nc2ccc(C(=N)NC(=O)OC(C)OC(=O)[C@@H](N)C(C)C)cc2)c(-c2ccc(C(=O)NCC3CC3)nc2C(=O)OC(C)OC(=O)OC(C)C)cc1OC` (stereo partly drawn) [Compound 54c, 1-((isopropoxycarbonyl)oxy)ethyl 3-(2-((4-(N-((1-(((S)-2-amino-3-methylbutanoyl)oxy)ethoxy)carbonyl)carbamimidoyl)phenyl)carbamoyl)-5-methoxy-4-vinylphenyl)-6-((cyclopropylmethyl)carbamoyl)picolinate], the “AUC0-last hour (area under the curve)” value is reported as “B (B = 1,001-10,000 ng/mL)”.
Then `C=Cc1cc(C(=O)Nc2ccc(C(=N)NC(=O)OC(C)OC(=O)[C@@H](N)C(C)C)cc2)c(-c2ccc(C(=O)NCC3CC3)nc2C(=O)OC(C)OC(=O)C(C)C)cc1OC` (stereo partly drawn) [Compound 55b, 1-(isobutyryloxy)ethyl 3-(2-((4-(N-((1-(((S)-2-amino-3-methylbutanoyl)oxy)ethoxy)carbonyl)carbamimidoyl)phenyl)carbamoyl)-5-methoxy-4-vinylphenyl)-6-((cyclopropylmethyl)carbamoyl)picolinate], with “B (B = 1,001-10,000 ng/mL)”; and `C=Cc1cc(C=O)c(-c2ccc(C(=O)NCC3CC3)nc2C(=O)OC(OC(=O)C(C)(C)C)C(C)C)cc1OC` (stereo not drawn) [Compound 56b, 2-methyl-1-(pivaloyloxy)propyl 6-((cyclopropylmethyl)carbamoyl)-3-(2-formyl-5-methoxy-4-vinylphenyl)picolinate], with “C (C >10,000 ng/mL)”; and `C=Cc1cc(C(=O)Nc2ccc(C(=N)NC(=O)OCCCCCC)cc2)c(-c2ccc(C(=O)NCC3CC3)nc2C(=O)OC(OC(=O)C(C)(C)C)C(C)C)cc1OC` (stereo not drawn) [Compound 57a, 2-methyl-1-(pivaloyloxy)propyl 6-((cyclopropylmethyl)carbamoyl)-3-(2-((4-(N-((hexyloxy)carbonyl)carbamimidoyl)phenyl)carbamoyl)-5-methoxy-4-vinylphenyl)picolinate], with “B (B = 1,001-10,000 ng/mL)”.
Then `C=Cc1cc(C(=O)Nc2ccc(C(=N)N)cc2)c(-c2ccc(C(=O)NCC3CC3)nc2C(=O)OC(C)OC(=O)[C@@H](N)C(C)C)cc1OC.Cl` (stereo partly drawn) [Compound 58f, 1-(((S)-2-amino-3-methylbutanoyl)oxy)ethyl 3-(2-((4-carbamimidoylphenyl)carbamoyl)-5-methoxy-4-vinylphenyl)-6-((cyclopropylmethyl)carbamoyl)picolinate Hydrochloride], with “B (B = 1,001-10,000 ng/mL)”; and `C=Cc1cc(C(=O)Nc2ccc(C(=N)NC(=O)OCCCCCC)cc2)c(-c2ccc(C(=O)NCC3CC3)nc2C(=O)OC(C)OC(=O)[C@@H](N)C(C)C)cc1OC.Cl` (stereo partly drawn) [Compound 59b, 1-(((S)-2-amino-3-methylbutanoyl)oxy)ethyl 6-((cyclopropylmethyl)carbamoyl)-3-(2-((4-(N-((hexyloxy)carbonyl)carbamimidoyl)phenyl)carbamoyl)-5-methoxy-4-vinylphenyl)picolinate Hydrochloride], with “B (B = 1,001-10,000 ng/mL)”.
As for `C=Cc1cc(C(=O)Nc2ccc(C(=N)NC(=O)OCCC(=O)OC(C)(C)C)cc2)c(-c2ccc(C(=O)NCC3CC3)nc2C(=O)OC(C)OC(=O)OC(C)C)cc1OC` (stereo not drawn) [Compound 60c, 1-((isopropoxycarbonyl)oxy)ethyl 3-(2-((4-(N-((3-(tert-butoxy)-3-oxopropoxy)carbonyl)carbamimidoyl)phenyl)carbamoyl)-5-methoxy-4-vinylphenyl)-6-((cyclopropylmethyl)carbamoyl)picolinate], the “AUC0-last hour (area under the curve)” value is listed as “B (B = 1,001-10,000 ng/mL)”.
Take `C=Cc1cc(C(=O)Nc2ccc(C(=N)NC(=O)OCCCCCC)cc2)c(-c2ccc(C(=O)NCC3CC3)nc2C(=O)OCOC(=O)[C@@H](N)CCC(=O)O)cc1OC` [Compound 61d, (S)-4-amino-5-(((6-((cyclopropylmethyl)carbamoyl)-3-(2-((4-(N-((hexyloxy)carbonyl)carbamimidoyl)phenyl)carbamoyl)-5-methoxy-4-vinylphenyl)picolinoyl)oxy)methoxy)-5-oxopentanoic acid]: the “AUC0-last hour (area under the curve)” value is “A (A = 0-1,000 ng/mL)”.
`C=Cc1cc(C(=O)Nc2ccc(C(=N)NC(=O)OCCCCCC)cc2)c(-c2ccc(C(=O)NCC3CC3)nc2C(=O)OCOC(=O)[C@@H](N)[C@@H](C)CC)cc1OC` [Compound 62d, (((2S,3S)-2-amino-3-methylpentanoyl)oxy)methyl 6-((cyclopropylmethyl)carbamoyl)-3-(2-((4-(N-((hexyloxy)carbonyl)carbamimidoyl)phenyl)carbamoyl)-5-methoxy-4-vinylphenyl)picolinate]: the “AUC0-last hour (area under the curve)” value is on record as “B (B = 1,001-10,000 ng/mL)”.
`C=Cc1cc(C(=O)Nc2ccc(C(=N)NC(=O)OC(C)C)cc2)c(-c2ccc(C(=O)NCC3CC3)nc2C(=O)OC(C)OC(=O)OC(C)C)cc1OC` (stereo not drawn) [Compound 63c, 1-((isopropoxycarbonyl)oxy)ethyl 6-((cyclopropylmethyl)carbamoyl)-3-(2-((4-(N-(isopropoxycarbonyl)carbamimidoyl)phenyl)carbamoyl)-5-methoxy-4-vinylphenyl)picolinate]: the “AUC0-last hour (area under the curve)” value is “C (C >10,000 ng/mL)”.
For `C=Cc1cc(C(=O)Nc2ccc(C(=N)NC(=O)OC(C)OC(=O)C(C)C)cc2)c(-c2ccc(C(=O)NCC3CC3)nc2C(=O)OCOC(=O)[C@@H](N)C(C)C)cc1OC` (stereo partly drawn) [Compound 64b, (((S)-2-amino-3-methylbutanoyl)oxy)methyl 6-((cyclopropylmethyl)carbamoyl)-3-(2-((4-(N-((1-(isobutyryloxy)ethoxy)carbonyl)carbamimidoyl)phenyl)carbamoyl)-5-methoxy-4-vinylphenyl)picolinate], the “AUC0-last hour (area under the curve)” value is listed as “B (B = 1,001-10,000 ng/mL)”.
In the case of `C=Cc1cc(C(=O)Nc2ccc(C(=N)NC(=O)OC3COCOC3)cc2)c(-c2ccc(C(=O)NCC3CC3)nc2C(=O)OC(C)OC(=O)C(C)C)cc1OC` (stereo not drawn) [Compound 65c, 1-(isobutyryloxy)ethyl 3-(2-((4-(N-(((1,3-dioxan-5-yl)oxy)carbonyl)carbamimidoyl)phenyl)carbamoyl)-5-methoxy-4-vinylphenyl)-6-((cyclopropylmethyl)carbamoyl)picolinate], the “AUC0-last hour (area under the curve)” value is “B (B = 1,001-10,000 ng/mL)”.
Under `C=Cc1cc(C(=O)Nc2ccc(C(=N)NC(=O)OC(COC)COC)cc2)c(-c2ccc(C(=O)NCC3CC3)nc2C(=O)OC(C)OC(=O)C(C)C)cc1OC` (stereo not drawn) [Compound 66c, 1-(isobutyryloxy)ethyl 6-((cyclopropylmethyl)carbamoyl)-3-(2-((4-(N-(((1,3-dimethoxypropan-2-yl)oxy)carbonyl)carbamimidoyl)phenyl)carbamoyl)-5-methoxy-4-vinylphenyl)picolinate] stands “B (B = 1,001-10,000 ng/mL)”; under `C=Cc1cc(C(=O)Nc2ccc(C(=N)NC(=O)OC3COCOC3)cc2)c(-c2ccc(C(=O)NCC3CC3)nc2C(=O)OC(C)OC(=O)OC(C)C)cc1OC` (stereo not drawn) [Compound 68a, 1-((isopropoxycarbonyl)oxy)ethyl 3-(2-((4-(N-(((1,3-dioxan-5-yl)oxy)carbonyl)carbamimidoyl)phenyl)carbamoyl)-5-methoxy-4-vinylphenyl)-6-((cyclopropylmethyl)carbamoyl)picolinate], “B (B = 1,001-10,000 ng/mL)”.
As to `C=Cc1cc(C(=O)Nc2ccc(C(=N)NC(=O)OCCCCCC)cc2)c(-c2ccc(C(=O)NCC3CC3)nc2C(=O)OCOC(=O)[C@@H](N)Cc2ccccc2)cc1OC` [Compound 69d, (S)-((2-amino-3-phenylpropanoyl)oxy)methyl 6-((cyclopropylmethyl)carbamoyl)-3-(2-((4-(N-((hexyloxy)carbonyl)carbamimidoyl)phenyl)carbamoyl)-5-methoxy-4-vinylphenyl)picolinate], the “AUC0-last hour (area under the curve)” value is listed as “A (A = 0-1,000 ng/mL)”.
With `C=Cc1cc(C(=O)Nc2ccc(C(=N)NC(=O)OCCCCCC)cc2)c(-c2ccc(C(=O)NCC3CC3)nc2C(=O)OC(C)OC(=O)OC2CCCCC2)cc1OC` (stereo not drawn) [Compound 70d, 1-(((cyclohexyloxy)carbonyl)oxy)ethyl 6-((cyclopropylmethyl)carbamoyl)-3-(2-((4-(N-((hexyloxy)carbonyl)carbamimidoyl)phenyl)carbamoyl)-5-methoxy-4-vinylphenyl)picolinate], the “AUC0-last hour (area under the curve)” value is listed as “B (B = 1,001-10,000 ng/mL)”.
Then `C=Cc1cc(C(=O)Nc2ccc(C(=N)NC(=O)OCCC(=O)O)cc2)c(-c2ccc(C(=O)NCC3CC3)nc2C(=O)OC(C)OC(=O)OC(C)C)cc1OC` (stereo not drawn) [Compound 71a, 3-((((4-(2-(6-((cyclopropylmethyl)carbamoyl)-2-((1-((isopropoxycarbonyl)oxy)ethoxy)carbonyl)pyridin-3-yl)-4-methoxy-5-vinylbenzamido)phenyl)(imino)methyl)carbamoyl)oxy)propanoic acid], with “A (A = 0-1,000 ng/mL)”; and `C=Cc1cc(C(=O)Nc2ccc(C(=N)NC(=O)OCCCCCC)cc2)c(-c2ccc(C(=O)NCC3CC3)nc2C(=O)OCOC(=O)OC(C)C)cc1OC` [Compound 72a, ((isopropoxycarbonyl)oxy)methyl 6-((cyclopropylmethyl)carbamoyl)-3-(2-((4-(N-((hexyloxy)carbonyl)carbamimidoyl)phenyl)carbamoyl)-5-methoxy-4-vinylphenyl)picolinate], with “B (B = 1,001-10,000 ng/mL)”.
